Experimental findings from patent US12030867B2, “Hsp90β selective inhibitors” (University of Notre Dame du Lac, priority 2018, dated 2024) are described below.

Each structure is given as a SMILES string.

Data set [1] concerns Hsp90 client proteins in HCT-116 cells. As to the kind of experiment: western blot analysis following treatment of HCT-116 cells. The data set is classed as cell-based. On the procedure:
(§1) 0.5 μM GDA was included as positive control and vehicle (D=DMSO) as negative control. […] Hsp90α siRNA was included as positive control and vehicle (lipofectamine) as negative control.

The target of another data set is Hsp90β (Homo sapiens (Human), UniProt P08238). As to the kind of experiment: fluorescence polarization (FP) assay, competitive displacement of FITC labeled Geldanamycin. Conditions: FP assay. The data set is classed as binding. The protocol: Once prepared, the compounds were evaluated for their binding affinities against the cytosolic isoforms, Hsp90α and Hsp90β by measuring their ability to competitively displace FITC labeled Geldanamycin (GDA) in a fluorescence polarization assay (apparent Kd's listed in Table 1). […] The alkyne (4k) was investigated to determine whether a linear substituent could project into the subpocket and affect selectivity.
Chain of Hsp90β (P08238 whole entry, canonical isoform): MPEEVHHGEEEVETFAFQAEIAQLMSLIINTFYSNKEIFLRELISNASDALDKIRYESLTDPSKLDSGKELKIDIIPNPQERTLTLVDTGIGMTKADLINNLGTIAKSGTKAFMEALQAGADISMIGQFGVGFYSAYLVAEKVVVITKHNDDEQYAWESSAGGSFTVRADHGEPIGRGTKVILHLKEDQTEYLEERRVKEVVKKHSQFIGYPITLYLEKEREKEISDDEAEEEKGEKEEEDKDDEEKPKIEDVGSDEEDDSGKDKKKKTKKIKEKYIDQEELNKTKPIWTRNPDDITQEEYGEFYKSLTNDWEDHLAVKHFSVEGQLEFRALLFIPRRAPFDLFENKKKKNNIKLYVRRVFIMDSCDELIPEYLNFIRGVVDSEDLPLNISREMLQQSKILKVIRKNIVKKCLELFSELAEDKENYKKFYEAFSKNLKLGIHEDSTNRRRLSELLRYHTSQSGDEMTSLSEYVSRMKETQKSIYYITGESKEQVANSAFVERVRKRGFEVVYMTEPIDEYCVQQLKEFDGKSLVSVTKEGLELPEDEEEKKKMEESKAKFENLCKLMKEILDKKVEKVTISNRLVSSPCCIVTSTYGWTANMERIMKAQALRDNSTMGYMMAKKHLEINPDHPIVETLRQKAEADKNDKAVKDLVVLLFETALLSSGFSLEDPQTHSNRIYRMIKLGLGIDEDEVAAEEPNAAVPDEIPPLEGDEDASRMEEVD
A general note: Polarisation of emitted light reports the rotation of a fluorescent probe.

Data set [2] concerns HTB-9 bladder cancer cells. As to the kind of experiment: tissue or blood.
The next data set has as its system hERG channel. As to the kind of experiment: western blot analysis of hERG channel trafficking in hERG-HEK293 cells. The data set is classed as cell-based. To be noted: HEK293 cells expressing the hERG channel. The protocol: as §1
Background: In western blotting, separated proteins are transferred to a membrane and probed.

For data set [3], the system named is HTB-5 bladder cancer cells. In words: tissue or blood.
The next data set has as its system MOLM-13 leukemia cells. In words: cells. Conditions: Homo sapiens.
Data set [4] relates to HT1376 bladder cancer cells. In words: cells. To be noted: Homo sapiens, HT-1376.
For another data set, the system named is K562 leukemia cells. As to the kind of experiment: cells. To be noted: Homo sapiens.
The test system of data set [5] is HCT-116 colon cancer cells. As to the kind of experiment: cells. To be noted: Homo sapiens.
Data set [6] deals with screened cancer cell lines. As to the kind of experiment: inhibitory activity against a variety of cancer cell lines. The data set is classed as cell-based.
The subject of data set [7] is UM-UC3 bladder cancer cells. In words: cells. Conditions: Homo sapiens, UMUC3.
Data set [8] concerns UM-UC-3 bladder cancer cells. As to the kind of experiment: cells. Conditions: Homo sapiens, UMUC3.
Data set [9] concerns LNCap-LN3 prostate cancer cells. In words: cells.
The next data set has as its system HT29 cells. As to the kind of experiment: cells. To be noted: Homo sapiens, HT-29.
Data set [10] relates to PC3-MM2 prostate cancer cells. As to the kind of experiment: cells. To be noted: Homo sapiens, PC3MM2.
Another data set deals with prostate cancer cells. In words: cells. To be noted: read-out: efficacy against prostate cancer cells.
The target in the next data set is Trap-1 (Homo sapiens (Human), UniProt Q12931). In words: binding affinity towards Trap-1.
Chain of Trap-1 (Q12931 60-704): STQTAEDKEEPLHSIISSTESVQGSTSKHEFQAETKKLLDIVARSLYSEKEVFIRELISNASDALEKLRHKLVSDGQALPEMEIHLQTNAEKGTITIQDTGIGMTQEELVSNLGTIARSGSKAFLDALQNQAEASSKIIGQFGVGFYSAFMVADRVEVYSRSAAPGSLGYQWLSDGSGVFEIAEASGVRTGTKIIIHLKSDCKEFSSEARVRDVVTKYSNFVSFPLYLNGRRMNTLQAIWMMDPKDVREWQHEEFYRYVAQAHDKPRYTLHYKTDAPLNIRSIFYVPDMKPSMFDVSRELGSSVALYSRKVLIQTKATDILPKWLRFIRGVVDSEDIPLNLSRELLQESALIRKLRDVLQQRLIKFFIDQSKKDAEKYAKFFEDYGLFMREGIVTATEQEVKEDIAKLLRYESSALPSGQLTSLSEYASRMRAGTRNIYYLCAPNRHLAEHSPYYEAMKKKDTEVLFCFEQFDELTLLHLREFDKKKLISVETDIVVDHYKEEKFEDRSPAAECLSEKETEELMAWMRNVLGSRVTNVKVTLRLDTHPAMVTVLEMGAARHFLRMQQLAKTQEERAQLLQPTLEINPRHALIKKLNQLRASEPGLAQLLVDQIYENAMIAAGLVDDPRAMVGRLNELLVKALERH
For data set [11], the system named is Hsp90 client proteins in UM-UC-3 cells. As to the kind of experiment: western blot analysis of client proteins in UM-UC-3 cells. The data set is classed as cell-based. To be noted: 24-hour incubation. On the procedure: Since Hsp90 inhibition induces the degradation of Hsp90-dependent substrates via the ubiquitin-proteosome pathway, the levels of both kinase and non-kinase Hsp90 clients were assessed via western blot analysis. […]. […] […]. Survivin, which is an Hsp90α dependent substrate was not affected, providing direct evidence for isoform-selective inhibition in a cellular context.

The test system of a further data set is other colon cancer cells. In words: cells.
In data set [12] the test system is C4-2b prostate cancer cells. As to the kind of experiment: cells.
The test system of data set [13] is LAPC4 prostate cancer cells. In words: cells. Conditions: Homo sapiens.
The next data set addresses Grp94 (Homo sapiens (Human), UniProt P14625). As to the kind of experiment: binding affinity towards Grp94.
The subject of another data set is T24 bladder cancer cells. In words: tissue or blood.

Chain of Grp94 (P14625 22-803, species assumed): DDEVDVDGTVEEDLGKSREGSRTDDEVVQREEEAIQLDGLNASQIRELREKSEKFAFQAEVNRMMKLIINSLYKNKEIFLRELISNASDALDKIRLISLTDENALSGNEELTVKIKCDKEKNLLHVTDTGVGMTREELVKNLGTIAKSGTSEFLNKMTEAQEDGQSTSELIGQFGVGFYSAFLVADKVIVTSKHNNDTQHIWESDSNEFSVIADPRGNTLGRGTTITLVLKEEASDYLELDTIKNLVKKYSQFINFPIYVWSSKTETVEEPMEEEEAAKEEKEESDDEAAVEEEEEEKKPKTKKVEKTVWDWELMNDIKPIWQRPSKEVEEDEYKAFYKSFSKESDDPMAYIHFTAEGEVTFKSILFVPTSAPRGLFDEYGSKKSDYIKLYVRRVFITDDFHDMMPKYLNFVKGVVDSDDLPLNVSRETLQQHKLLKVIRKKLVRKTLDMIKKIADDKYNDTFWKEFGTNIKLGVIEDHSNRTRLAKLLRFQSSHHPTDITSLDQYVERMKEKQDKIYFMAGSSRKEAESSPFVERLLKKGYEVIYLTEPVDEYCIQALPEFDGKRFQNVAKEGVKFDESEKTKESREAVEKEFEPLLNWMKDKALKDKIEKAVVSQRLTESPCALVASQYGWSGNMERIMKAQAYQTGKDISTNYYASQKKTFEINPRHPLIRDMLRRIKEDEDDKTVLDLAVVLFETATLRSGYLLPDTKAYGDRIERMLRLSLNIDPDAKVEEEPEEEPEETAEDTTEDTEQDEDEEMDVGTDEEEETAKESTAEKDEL

Turning to `CCCC1Cc2cc(-n3nc(C)c4c3CC(C)(C)CC4=O)cc(N[C@H]3CC[C@H](O)CC3)c2C(=O)N1` (some centres unmarked) [Compound 6a, 8-(((1r,4r)-4-hydroxycyclohexyl)amino)-3-propyl-6-(3,6,6-trimethyl-4-oxo-4,5,6,7-tetrahydro-1H-indazol-1-yl)-3,4-dihydroisoquinolin-1(2H)-one], the “CDK4, CDK6, cIAP1 and CXCR4 levels (Hsp90β-dependent clients)” value in data set [1] is on record as “induced the degradation”. Further, in [1], the “total levels of Akt-1 and Raf-1” value is reported as “not affected”. Further, in data set [1] (24 h exposure), the “Hsf-1, Hsp70 and Hsp90 levels” value was “induced the degradation”. Moreover, at Hsp90β, the “affinity for Hsp90β (in words)” value is “increased binding affinity”. The “selectivity for Hsp90β over Hsp90α (in words)” value at Hsp90β is “enhanced selectivity”. Moreover, the IC50 came to 0.811 µM in data set [2]; 0.935 µM in data set [3]; 0.0394 µM in the data set on MOLM-13 leukemia cells; 0.716 µM in data set [4]; 0.498 µM in the data set on K562 leukemia cells; 0.265 µM in data set [5]. The IC50 in data set [7] turned out to be 1.05 µM. Moreover, in the data set with hERG channel, the “hERG channel maturation and trafficking” value is given as “not affected”. For the same compound, the “IC50 values against the screened cancer cell lines (in words)” value in data set [6] is “submicromolar”.

By GI50 is commonly meant the concentration giving 50% growth inhibition. Read a low GI50 as more potent growth inhibition. Usually Kd stands for the constant that tells how readily two partners part at equilibrium. Higher therefore signals lower affinity. In the case of `CCCc1cc2cc(-n3nc(C)c4c3CC(C)(C)CC4=O)cc(N[C@H]3CC[C@H](O)CC3)c2c(=O)[nH]1` [Compound 4d, 8-(((1r,4r)-4-hydroxycyclohexyl)amino)-3-propyl-6-(3,6,6-trimethyl-4-oxo-4,5,6,7-tetrahydro-1H-indazol-1-yl)isoquinolin-1(2H)-one], the GI50 in data set [8] is 0.508 µM; in data set [9] it was 1.18 µM; in the data set with HT29 cells, 0.026 µM; in data set [10], 1.24 µM; in the data set with other colon cancer cells, 0.05 to 0.08 µM; in data set [12], 1.03 µM. Moreover, the GI50 turned out to be 2.56 µM in [13] and 0.197 µM in the data set on T24 bladder cancer cells. Further, the IC50 in the data set on prostate cancer cells was in the range of 1 to 2.5 µM. The Kd on Trap-1 and at Grp94 was greater than 5 µM in each case. Further, the “CXCR4 and B-raf levels (Hsp90β-dependent clients)” value in data set [11] is “marked dose-dependent reduction”. Also, the FGFR3 level result in [11] is on record as “marked dose-dependent reduction”. Besides, the “Hsp27 and Hsf-1 levels (heat shock related proteins)” value in [11] is listed as “declined upon increasing doses”. Also, the “Survivin level (Hsp90α dependent substrate)” value in data set [11] is given as “not affected”.
